These results are taken from patent US20070020716A1, “Coronary Endothelial Dysfunction” (priority 2005, published 2007).

The test system of assay [1] is coronary blood flow (left anterior descending coronary artery). Description: Microvascular endothelial function: change in coronary blood flow after intracoronary acetylcholine. The class given is in vivo, human. Particulars: maximal dose of intracoronary acetylcholine, unadjusted. Here is the method: (§1) After diagnostic angiography and exclusion of significant obstructive coronary artery disease, endothelium-dependent coronary vasoactivity was assessed as described elsewhere (Suwaidi et al., Circulation, 101:948-954 (2000) and Hasdai et al., Circulation, 96:3390-3395 (1997)). In brief, a Doppler guidewire (Flowire, Volcano Inc.) within a coronary-infusion catheter (Ultrafuse, SciMed Life System) was positioned into the midportion of the left anterior descending coronary artery. Intra-coronary acetylcholine at increasing concentrations of 10^−6, 10^−5, and 10^−4 M was infused to obtain effective coronary concentrations of 10^−8, 10^−7, and 10^−6 M, respectively. Each dose of acetylcholine was infused for three minutes through the infusion catheter into the left anterior descending coronary artery to assess endothelium dependent vasoreactivity. Hemodynamic data, Doppler measurements, and a coronary angiogram were obtained after each infusion. Coronary artery diameter was measured by an independent investigator in the segment 5 mm distal to the tip of the Doppler wire using a computer-based image analysis system. Average peak velocity (APV) was derived from the Doppler flow velocity spectra, and coronary blood flow (CBF) was determined as π(coronary artery diameter/2)^2×(APV/2). […] Endothelium-independent microvascular function was determined by the coronary flow reserve (CFR), which is the ratio of the APV at maximal hyperemia to the APV at baseline. […] Lp-PLA2 levels were measured in plasma aliquots, which were obtained at the time of coronary angiography and stored at −70° C., using an enzyme-linked immunoassay (PLAC™ test, diaDexus, Inc; Caslake et al., Atherosclerosis, 150:413-419 (2000)). […]
Microvascular endothelial function as determined by percentage change in coronary blood flow in response to the maximal dose of intracoronary acetylcholine was measured (FIG. 1). […]

The subject of assay [2] is coronary artery diameter (left anterior descending coronary artery). Description: Epicardial endothelial function: change in coronary artery diameter after intracoronary acetylcholine. The class given is in vivo, human. Particulars: maximal dose of acetylcholine, unadjusted. Here is the method: as §1
Epicardial endothelial function as determined by percentage change in coronary artery diameter in response to the maximal dose of acetylcholine was measured (FIG. 2). […]

The mark [3] stands for this setting: patients in Lp-PLA2 Tertile 1 (110-181.4 ng/mL, N=57).
[4] abbreviates: patients in Lp-PLA2 Tertile 2 (181.48-239.6 ng/mL, N=58).
The mark [5] stands for this setting: patients in Lp-PLA2 Tertile 3 (240-443 ng/mL, N=57).

Turning to `CC(=O)OCC[N+](C)(C)C` [acetylcholine], the results for the “percentage change in coronary blood flow” value in assay [1] (setting [3]), in assay [1] (setting [4]) and in assay [1] (setting [5]) were 78.4±15.2%, 63.8±73.2% and 32.0±71.7%, respectively. Further, the “percentage change in coronary artery diameter” value in assay [2] (setting [3]) was −9.5±15.2%; in assay [2] (setting [4]), −14.1±14.7%; in assay [2] (setting [5]) it was −23.3±25.1%.
